{"source": "PubChem BioAssay (NCI)", "assay_in_all_cases": "NCI tumour cell line growth inhibition, 48 h", "key": {"SR leukemia": {"tested_on": "SR leukemia"}, "EKVX NSCLC": {"tested_on": "EKVX NSCLC"}, "T-47D breast": {"tested_on": "T-47D breast"}, "MDA-N": {"tested_on": "MDA-N"}, "HOP-92 NSCLC": {"tested_on": "HOP-92 NSCLC"}, "NCI-H522 lung": {"tested_on": "NCI-H522 lung"}, "ACHN renal": {"tested_on": "ACHN renal"}, "NCI-H226 lung": {"tested_on": "NCI-H226 lung"}, "A498 renal": {"tested_on": "A498 renal"}, "HCT-15 colon": {"tested_on": "HCT-15 colon"}, "HT29 colon": {"tested_on": "HT29 colon"}, "HS 578T breast": {"tested_on": "HS 578T breast"}, "MOLT-4 leukemia": {"tested_on": "MOLT-4 leukemia"}, "KM12 colon": {"tested_on": "KM12 colon"}, "SK-MEL-2 melanoma": {"tested_on": "SK-MEL-2 melanoma"}, "HOP-62 NSCLC": {"tested_on": "HOP-62 NSCLC"}, "OVCAR-4 ovarian": {"tested_on": "OVCAR-4 ovarian"}, "IGROV1 ovarian": {"tested_on": "IGROV1 ovarian"}, "HCT-116 colon": {"tested_on": "HCT-116 colon"}, "HL-60(TB) leukemia": {"tested_on": "HL-60(TB) leukemia"}}, "note": "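Assay format: 96-well plates, 48-hour exposure. At the TGI there is no net growth.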"}
{"compound": "C[N+](C)(C)CC(=O)N/N=C\\c1c(O)ccc2ccccc12", "values": [{"measurement": "TGI", "setting": "SR leukemia", "result": "> 100", "unit": "µM"}, {"measurement": "TGI", "setting": "EKVX NSCLC", "result": "> 100", "unit": "µM"}, {"measurement": "TGI", "setting": "T-47D breast", "result": "> 100", "unit": "µM"}, {"measurement": "TGI", "setting": "MDA-N", "result": "> 100", "unit": "µM"}, {"measurement": "TGI", "setting": "HOP-92 NSCLC", "result": 59.3, "unit": "µM"}, {"measurement": "TGI", "setting": "NCI-H522 lung", "result": 53.6, "unit": "µM"}, {"measurement": "TGI", "setting": "ACHN renal", "result": "> 100", "unit": "µM"}, {"measurement": "TGI", "setting": "NCI-H226 lung", "result": 85.9, "unit": "µM"}, {"measurement": "TGI", "setting": "A498 renal", "result": 97.8, "unit": "µM"}, {"measurement": "TGI", "setting": "HCT-15 colon", "result": "> 100", "unit": "µM"}, {"measurement": "TGI", "setting": "HT29 colon", "result": "> 100", "unit": "µM"}, {"measurement": "TGI", "setting": "HS 578T breast", "result": 56.5, "unit": "µM"}, {"measurement": "TGI", "setting": "MOLT-4 leukemia", "result": 51.7, "unit": "µM"}, {"measurement": "TGI", "setting": "KM12 colon", "result": "> 100", "unit": "µM"}, {"measurement": "TGI", "setting": "SK-MEL-2 melanoma", "result": "> 100", "unit": "µM"}, {"measurement": "TGI", "setting": "HOP-62 NSCLC", "result": "> 100", "unit": "µM"}, {"measurement": "TGI", "setting": "OVCAR-4 ovarian", "result": "> 100", "unit": "µM"}, {"measurement": "TGI", "setting": "IGROV1 ovarian", "result": "> 100", "unit": "µM"}, {"measurement": "TGI", "setting": "HCT-116 colon", "result": "> 100", "unit": "µM"}, {"measurement": "TGI", "setting": "HL-60(TB) leukemia", "result": 43.3, "unit": "µM"}]}
{"compound": "CCOC(=O)c1sc(N)nc1N1CCCC1", "values": [{"measurement": "TGI", "setting": "SR leukemia", "result": "> 100", "unit": "µM"}, {"measurement": "TGI", "setting": "EKVX NSCLC", "result": "> 100", "unit": "µM"}, {"measurement": "TGI", "setting": "T-47D breast", "result": "> 100", "unit": "µM"}, {"measurement": "TGI", "setting": "MDA-N", "result": "> 100", "unit": "µM"}, {"measurement": "TGI", "setting": "HOP-92 NSCLC", "result": "> 100", "unit": "µM"}, {"measurement": "TGI", "setting": "NCI-H522 lung", "result": "> 100", "unit": "µM"}, {"measurement": "TGI", "setting": "ACHN renal", "result": "> 100", "unit": "µM"}, {"measurement": "TGI", "setting": "NCI-H226 lung", "result": "> 100", "unit": "µM"}, {"measurement": "TGI", "setting": "A498 renal", "result": "> 100", "unit": "µM"}, {"measurement": "TGI", "setting": "HCT-15 colon", "result": "> 100", "unit": "µM"}, {"measurement": "TGI", "setting": "HT29 colon", "result": "> 100", "unit": "µM"}, {"measurement": "TGI", "setting": "HS 578T breast", "result": "> 100", "unit": "µM"}, {"measurement": "TGI", "setting": "MOLT-4 leukemia", "result": "> 100", "unit": "µM"}, {"measurement": "TGI", "setting": "KM12 colon", "result": "> 100", "unit": "µM"}, {"measurement": "TGI", "setting": "SK-MEL-2 melanoma", "result": "> 100", "unit": "µM"}, {"measurement": "TGI", "setting": "HOP-62 NSCLC", "result": "> 100", "unit": "µM"}, {"measurement": "TGI", "setting": "OVCAR-4 ovarian", "result": "> 100", "unit": "µM"}, {"measurement": "TGI", "setting": "IGROV1 ovarian", "result": "> 100", "unit": "µM"}, {"measurement": "TGI", "setting": "HCT-116 colon", "result": "> 100", "unit": "µM"}, {"measurement": "TGI", "setting": "HL-60(TB) leukemia", "result": "> 100", "unit": "µM"}]}
{"compound": "Nc1nc(NCc2ccccc2)cc(NCc2ccccc2)n1", "values": [{"measurement": "TGI", "setting": "SR leukemia", "result": "> 100", "unit": "µM"}, {"measurement": "TGI", "setting": "EKVX NSCLC", "result": 41, "unit": "µM"}, {"measurement": "TGI", "setting": "T-47D breast", "result": 25.9, "unit": "µM"}, {"measurement": "TGI", "setting": "MDA-N", "result": 5.97, "unit": "µM"}, {"measurement": "TGI", "setting": "HOP-92 NSCLC", "result": 21.5, "unit": "µM"}, {"measurement": "TGI", "setting": "NCI-H522 lung", "result": 19.2, "unit": "µM"}, {"measurement": "TGI", "setting": "ACHN renal", "result": 28.1, "unit": "µM"}, {"measurement": "TGI", "setting": "NCI-H226 lung", "result": 27.5, "unit": "µM"}, {"measurement": "TGI", "setting": "A498 renal", "result": 14.5, "unit": "µM"}, {"measurement": "TGI", "setting": "HCT-15 colon", "result": 18.3, "unit": "µM"}, {"measurement": "TGI", "setting": "HT29 colon", "result": 11.9, "unit": "µM"}, {"measurement": "TGI", "setting": "HS 578T breast", "result": 13.4, "unit": "µM"}, {"measurement": "TGI", "setting": "MOLT-4 leukemia", "result": "> 100", "unit": "µM"}, {"measurement": "TGI", "setting": "KM12 colon", "result": 27.9, "unit": "µM"}, {"measurement": "TGI", "setting": "SK-MEL-2 melanoma", "result": 31.2, "unit": "µM"}, {"measurement": "TGI", "setting": "HOP-62 NSCLC", "result": 41.7, "unit": "µM"}, {"measurement": "TGI", "setting": "OVCAR-4 ovarian", "result": 28.3, "unit": "µM"}, {"measurement": "TGI", "setting": "IGROV1 ovarian", "result": 23.9, "unit": "µM"}, {"measurement": "TGI", "setting": "HCT-116 colon", "result": 21.2, "unit": "µM"}, {"measurement": "TGI", "setting": "HL-60(TB) leukemia", "result": "> 100", "unit": "µM"}]}
